Residues, ends and D or L forms follow the SMILES beside them. *: point of attachment. Cbz = O=C(OCc1ccccc1)*; OtBu = CC(C)(C)O*
Tested on: primary human MSC cells
Assay: BMP regulation: gene expression array (SABiosciences PAHS-026) in primary human MSC cells
Assay type: cell-based
Conditions: hMSC, 8 hours
Description: SABisosciences custom array plates (Cat#PAHS-026) were used to measure BMP expression. These array plates are validated for efficiency when used at recommended conditions and reagents. On day 1, primary human MSC cells were plated at 200,000 cell/well using 6-well plates with 10% FBS, Penicillin and Streptomycin 10 mL per Liter, in recommended media. Only early passages of cells were used.
On day 2, cells were treated with compounds dissolved in DMSO diluted 1:1000 or more to avoid solvent effects. A non-treated negative control group was evaluated (FIG. 1, “Control Group”) along with a positive control group containing PS1 at 0.1 μM (FIG. 1, “Group 1”). Final testing concentration for CSA-90 was 5.0 μM (FIG. 1, “Group 2”), 2.5 μM (FIG. 1, “Group 3”), and 1.2 μM (FIG. 1, “Group 4”). Treatment lasted 8 hours, followed by RNA isolation using a QIAGEN Miniprep Kit. RNA was measured at 260/280 nm using NanoDrop2000 and normalized to 250 ng. cDNA preparation was done using QIAGEN First Strand kit.

[1] = PS1 0.1 μM, v. untreated control

## CC[C@H](C)[C@H](NC(=O)OCc1ccccc1)C(=O)N[C@@H](CCC(=O)OC(C)(C)C)C(=O)N[C@@H](C)C(=O)N[C@H](C=O)CC(C)C [PS1, reference compound] (Cbz-IE(OtBu)AL-aldehyde)
0.1 μM
  up-regulation of BMP-2 mRNA compared to the control: 3 fold
[1]
  Fold Up-Regulation ACTB (Actin, beta): −1.4183 fold
  Fold Up-Regulation AHSG (Alpha-2-HS-glycoprotein): −1.3295 fold
  Fold Up-Regulation ALPL (Alkaline phosphatase, liver/bone/kidney): −1.4723 fold
  Fold Up-Regulation AMBN (Ameloblastin): −1.9272 fold
  Fold Up-Regulation AMELY (Amelogenin, Y-linked): −1.8864 fold
  Fold Up-Regulation ANXA5 (Annexin A5): 1.1236 fold
  Fold Up-Regulation BGLAP (Bone gamma-carboxyglutamate (gla) protein): −1.3879 fold
  Fold Up-Regulation BGN (Biglycan): −1.1323 fold
  Fold Up-Regulation BMP-1 (Bone morphogenetic protein 1): −1.1214 fold
  Fold Up-Regulation BMP-2 (Bone morphogenetic protein 2): 3.0816 fold
  Fold Up-Regulation BMP-3 (Bone morphogenetic protein 3): −1.1038 fold
  Fold Up-Regulation BMP-4 (Bone morphogenetic protein 4): −2.2148 fold
  Fold Up-Regulation BMP-5 (Bone morphogenetic protein 5): 1.124 fold
  Fold Up-Regulation BMP-6 (Bone morphogenetic protein 6): 2.642 fold
  Fold Up-Regulation CALCR (CALCITONIN RECEPTOR): 1.124 fold
  Fold Up-Regulation CD36 (CD36 molecule, thrombospondin receptor): −1.0202 fold
  Fold Up-Regulation CDH11 (Cadherin 11, type 2, OB-cadherin): −2.2309 fold
  Fold Up-Regulation COL1A1 (Collagen, type I, alpha 1): −1.1935 fold
  Fold Up-Regulation COL1A2 (Collagen, type I, alpha 2): −1.0689 fold
  Fold Up-Regulation COL2A1 (Collagen, type II, alpha 1): −1.4242 fold
  Fold Up-Regulation COL3A1 (Collagen, type III, alpha 1): −1.0806 fold
  Fold Up-Regulation COL4A3 (Collagen, type IV, alpha 3): −1.0619 fold
  Fold Up-Regulation COL5A1 (Collagen, type V, alpha 1): 1.0927 fold
  Fold Up-Regulation COL10A1 (Collagen, type X, alpha 1): 1.5421 fold
  Fold Up-Regulation COL11A1 (Collagen, type XI, alpha 1): −1.4875 fold
  Fold Up-Regulation COL12A1 (Collagen, type XII, alpha 1): 1.0767 fold
  Fold Up-Regulation COL14A1 (Collagen, type XIV, alpha 1): −1.5279 fold
  Fold Up-Regulation COL15A1 (Collagen, type XV, alpha 1): 1.2144 fold
  Fold Up-Regulation COMP (Cartilage oligomeric matrix protein): 1.2648 fold
  Fold Up-Regulation CSF2 (Colony stimulating factor 2): 6.205 fold
  Fold Up-Regulation CSF3 (Colony stimulating factor 3): −2.4364 fold
  Fold Up-Regulation CTSK (Cathepsin K): −1.2679 fold
  Fold Up-Regulation DMP1 (Dentin matrix acidic phosphoprotein 1): 1.124 fold
  Fold Up-Regulation DSPP (Dentin sialophosphoprotein): 1.124 fold
  Fold Up-Regulation EGF (Epidermal growth factor): −1.2529 fold
  Fold Up-Regulation EGFR (Epidermal growth factor receptor): −1.8532 fold
  Fold Up-Regulation ENAM (Enamelin): 1.124 fold
  Fold Up-Regulation FGF1 (Fibroblast growth factor 1): −1.4948 fold
  Fold Up-Regulation FGF2 (Fibroblast growth factor 2): 1.3957 fold
  Fold Up-Regulation FGF3 (Fibroblast growth factor 3): −1.3257 fold
  Fold Up-Regulation FGFR1 (Fibroblast growth factor receptor 1): −1.0999 fold
  Fold Up-Regulation FGFR2 (Fibroblast growth factor receptor 2): −1.2644 fold
  Fold Up-Regulation FLT1 (Fms-related tyrosine kinase 1): −2.7821 fold
  Fold Up-Regulation FN1 (Fibronectin 1): 1.099 fold
  Fold Up-Regulation GAPDH (Glyceraldehyde-3-phosphate dehydrogenase): 1.161 fold
  Fold Up-Regulation GDF10 (Growth differentiation factor 10): 1.124 fold
  Fold Up-Regulation ICAM1 (Intercellular adhesion molecule 1): 1.5053 fold
  Fold Up-Regulation IGF1 (Insulin-like growth factor 1): 1.5067 fold
  Fold Up-Regulation IGF1R (Insulin-like growth factor 1 receptor): −1.0699 fold
  Fold Up-Regulation IGF2 (Insulin-like growth factor 2): −1.2388 fold
  Fold Up-Regulation ITGA1 (Integrin, alpha 1): 1.325 fold
  Fold Up-Regulation ITGA2 (Integrin, alpha 2): −1.0945 fold
  Fold Up-Regulation ITGA3 (Integrin, alpha 3): −1.8917 fold
  Fold Up-Regulation ITGAM (Integrin, alpha M): 1.3319 fold
  Fold Up-Regulation ITGB1 (Integrin, beta 1): 1.1614 fold
  Fold Up-Regulation MMP2 (Matrix metallopeptidase 2): −1.1194 fold
  Fold Up-Regulation MMP8 (Matrix metallopeptidase 8): 3.7453 fold
  Fold Up-Regulation MMP9 (Matrix metallopeptidase 9): −1.2449 fold
  Fold Up-Regulation MMP10 (Matrix metallopeptidase 10): 1.3516 fold
  Fold Up-Regulation MSX1 (Msh homeobox 1): 6.2916 fold
  Fold Up-Regulation NFKB1 (Nuclear factor of kappa light polypeptide gene enhancer in B-cells 1): −1.1038 fold
  Fold Up-Regulation PDGFA (Platelet-derived growth factor alpha polypeptide): 1.0421 fold
  Fold Up-Regulation PHEX (Phosphate regulating endopeptidase homolog, Xlinked): 1.9871 fold
  Fold Up-Regulation RUNX2 (Runt-related transcription factor 2): −3.542 fold
  Fold Up-Regulation SCARB1 (Scavenger receptor class B, member 1): 1.1791 fold
  Fold Up-Regulation SERPIN H1 (Serpin peptidase inhibitor, clade H, member 1): 1.4764 fold
  Fold Up-Regulation SMAD1 (SMAD family member 1): −1.2813 fold
  Fold Up-Regulation SMAD2 (SMAD family member 2): 1.0462 fold
  Fold Up-Regulation SMAD3 (SMAD family member 3): −2.771 fold
  Fold Up-Regulation SMAD4 (SMAD family member 4): 1.3022 fold
  Fold Up-Regulation STATH (Statherin): −2.2674 fold
  Fold Up-Regulation TFIP11 (Tuftelin interacting protein 11): 1.1041 fold
  Fold Up-Regulation TGFB1 (Transforming growth factor, beta 1): −1.2644 fold
  Fold Up-Regulation TGFB2 (Transforming growth factor, beta 2): 1.0081 fold
  Fold Up-Regulation TGFB3 (Transforming growth factor, beta 3): 2.2234 fold
  Fold Up-Regulation TGFBR1 (Transforming growth factor, beta receptor 1): 2.0059 fold
  Fold Up-Regulation TGFBR2 (Transforming growth factor, beta receptor II): −2.3752 fold
  Fold Up-Regulation TNF (Tumor necrosis factor): 1.8055 fold
  Fold Up-Regulation TUFT1 (Tuftelin 1): 1.4326 fold
  Fold Up-Regulation TWIST1 (Twist homolog 1): −2.197 fold
  Fold Up-Regulation VCAM1 (Vascular cell adhesion molecule 1): −2.406 fold
  Fold Up-Regulation VDR (Vitamin D (1,25-dihydroxyvitamin D3) receptor): −1.5248 fold
  Fold Up-Regulation VEGFA (Vascular endothelial growth factor A): −1.0162 fold
  Fold Up-Regulation VEGFB (Vascular endothelial growth factor B): −1.1191 fold
